The record followed here is ChEMBL document CHEMBL3797072, “Discovery of Potent, Selective, and Orally Bioavailable Small-Molecule Modulators of the Mediator Complex-Associated Kinases CDK8 and CDK19” (J Med Chem, 2016).

Values after ≈ are worked out from the molar mass of the structure shown.

Series [1] is described as follows: in vitro. To be noted: human, microsomes.
The nature of series [2]: in vitro. The settings on record: mouse, microsomes.
Series [3] can be described thus: in vitro. To be noted: rat, microsomes.
The nature of series [4]: physchem.
A short description of series [5]: physchem. The source holds these as a separate data set.
A short description of series [6]: in vivo. The settings on record: mouse, plasma.
The nature of series [7]: in vivo. To be noted: mouse, faeces.
Series [8] in a line: in vivo. The settings on record: mouse, plasma. This is another data set of the same source.
Series [9] is described as follows: in vivo. The settings on record: mouse, faeces. The source holds these as a separate data set.
Series [10] is described as follows: in vivo. To be noted: Wistar, rat.
Series [11] in a line: in vivo. To be noted: NMRI, mouse.
Series [12] is described as follows: in vivo. To be noted: Beagle, dog.

On to `CC(C)n1ncc2cc(-c3cnc(N)c(Cl)c3N3CCC4(CCNC4=O)CC3)ccc21`, for which the values for the intrinsic metabolic clearance (microsomal CLint) in the series “in vitro [1]”, in “in vitro [2]” and in “in vitro [3]” were 202 µL/min/mg, 202 µL/min/mg and 139 µL/min/mg, respectively. For the same molecule, the solubility (kinetic) in “physchem [4]” was 126 µM (≈ 55.3 µg/mL).

`CC(C)(O)Cn1cc(-c2ccc(-c3cnc(N)c(Cl)c3N3CCC4(CCNC4=O)CC3)cc2)cn1` registered a thermodynamic solubility in the series “physchem [5]” below 1 µg/mL.

`Cn1cc(-c2ccc(-c3cnc(N)c(C(F)(F)F)c3N3CCC4(CC3)CNC(=O)O4)cc2)cn1` yielded a thermodynamic solubility in “physchem [5]” of 1 µg/mL (≈ 2.12 µM).

On to `CN1c2ccc(-c3cnc(N)c(F)c3N3CCC4(CCNC4=O)CC3)cc2CS1(=O)=O`, for which the thermodynamic solubility in the series “physchem [5]” is 29 µg/mL (≈ 65.1 µM).

In turn, `Cn1ncc2cc(-c3cnc(N)c(Cl)c3N3CCC4(CC3)CNC(=O)O4)ccc21` had a solubility (thermodynamic) in “physchem [5]” of 3 µg/mL (≈ 7.27 µM).

As for `Cn1cc(-c2ccc(-c3cnc(N)c(Cl)c3N3CCC4(CCNC4=O)CC3)cc2)cn1`, the thermodynamic solubility in the series “physchem [5]” was found to be 2 µg/mL (≈ 4.58 µM).

For the molecule `CN1c2ccc(-c3cncc(Cl)c3N3CCC4(CC3)CNC(=O)O4)cc2CS1(=O)=O`, the clearance in the series “in vivo [6]” is 81.5 mL/min/kg; in the series “in vivo [8]”, 66.7 mL/min/kg. In “physchem [5]”, this molecule came in with a thermodynamic solubility of 17 µg/mL (≈ 37.9 µM). For the same molecule, the dose excreted was below 1% in the series “in vivo [7]” and 18% in the series “in vivo [9]”.

The molecule `Cn1cc(-c2ccc(-c3cncc(Cl)c3N3CCC4(CC3)NCNC4=O)cc2)cn1` had a solubility (thermodynamic) in the series “physchem [5]” of 47 µg/mL (≈ 111 µM).

In the case of `CN1c2ccc(-c3cnc(N)c(Cl)c3N3CCC4(CC3)CNC(=O)O4)cc2CS1(=O)=O`, the clearance in “in vivo [6]” was 68 mL/min/kg; in “in vivo [8]”, 47.5 mL/min/kg. Further, the dose excreted in “in vivo [7]” was below 1%; in the series “in vivo [9]”, 20%.

In “physchem [5]”, `Cn1cc(-c2ccc(-c3cncc(Cl)c3N3CCC4(CC3)CNC(=O)O4)cc2)cn1` had a solubility (thermodynamic) of 3 µg/mL (≈ 7.08 µM).

Take `Cn1ncc2cc(-c3cnc(N)c(Cl)c3N3CCC4(CCNC4=O)CC3)ccc21`: the values for the half-life in “in vivo [10]”, in “in vivo [11]” and in the series “in vivo [12]” were 66 min, 46.8 min and 59.4 min, respectively. In addition, the solubility (thermodynamic) in the series “physchem [5]” was 40 µg/mL (≈ 97.3 µM).

With `COCCN1CCCC12CCN(c1c(Cl)cncc1-c1ccc3c(c1)CS(=O)(=O)N3C)CC2`, in “physchem [5]”, the thermodynamic solubility came out at 248 µg/mL (≈ 505 µM).

As for `Cn1cc(-c2ccc(-c3cncc(Cl)c3N3CCC4(CCNC4=O)CC3)cc2)cn1`, the clearance is 39 mL/min/kg in the series “in vivo [6]” and 38.3 mL/min/kg in the series “in vivo [8]”. Also, the solubility (thermodynamic) in “physchem [5]” was 6 µg/mL (≈ 14.2 µM). For the same molecule, the results for the dose excreted in the series “in vivo [7]” and in “in vivo [9]” were below 1% and 9.1%, respectively. For the same molecule, the half-life was 33 min in the series “in vivo [11]” and 42 min in “in vivo [12]”. For the same molecule, the results for the microsomal CLint in the series “in vitro [1]”, in “in vitro [2]” and in “in vitro [3]” were 84 µL/min/mg, 141 µL/min/mg and 54 µL/min/mg, respectively.

Regarding `Cn1cc(-c2ccc(-c3cnc(N)c(Cl)c3N3CCC4(CC3)CNC(=O)O4)cc2)cn1`, the clearance in “in vivo [6]” is 43.2 mL/min/kg; in the series “in vivo [8]” it was 47.3 mL/min/kg. The dose excreted was below 1% in the series “in vivo [7]” and 17% in “in vivo [9]”.

In the case of `Cn1cc(-c2ccc(-c3cncc(Cl)c3N3CCC4(CC3)NC(=O)CNC4=O)cc2)cn1`, the figures for the clearance in the series “in vivo [6]” and in “in vivo [8]” were 73.8 mL/min/kg and 37 mL/min/kg, respectively. Also, the dose excreted in the series “in vivo [7]” came out at 24%; in the series “in vivo [9]”, 67%.
